Test results from article PMC3616001, “A Novel ^99mTc-Labeled Molecular Probe for Tumor Angiogenesis Imaging in Hepatoma Xenografts Model: A Pilot Study” (PLoS ONE, 2013).
Bridges are numbered along the chain shown (N, C = ends). Where no end group is shown, it is not given here. [ ]: non-standard residue; d: D form.

Key:
[1] = assay type: in vitro ADME
Protocol: For the quality control of labeling, a double-phase paper chromatography on Xinhua no. 1 filter paper was performed to measure labeling efficiency and radiochemical purity, with acetone and ethanol: ammonia: water (2∶1∶5) as mobile phase. A sample of 100 µL ^99mTc-RRL at room temperature was used to observe the in vitro stability. And the in vitro stability was also determined by incubating 100 µL ^99mTc-RRL with 900 µL of normal saline at room temperature and 900 µL of freshly collected serum at 37°C, respectively. The three aliquots were then analyzed at 0, 1, 2, 4 and 6 h by paper chromatography.

[2] = In vitro stability at room temperature, neat and in normal saline (radiochemical purity by paper chromatography); assay type: physicochemical; conditions: analysed at 0, 1, 2, 4 and 6 h by paper chromatography, average of 3 sampling points
Protocol: For the quality control of labeling, a double-phase paper chromatography on Xinhua no. 1 filter paper was performed to measure labeling efficiency and radiochemical purity, with acetone and ethanol: ammonia: water (2∶1∶5) as mobile phase.
A sample of 100 µL ^99mTc-RRL at room temperature was used to observe the in vitro stability. And the in vitro stability was also determined by incubating 100 µL ^99mTc-RRL with 900 µL of normal saline at room temperature and 900 µL of freshly collected serum at 37°C, respectively. The three aliquots were then analyzed at 0, 1, 2, 4 and 6 h by paper chromatography.

[3] = system: mice bearing HepG2 xenografts; parameters: species or system BALB/c nu/nu mice; conditions: mouse, in vivo
Description: BALB/c nu/nu mice (female, 18 ± 2 g, 3- to 4-wk-old; Department of Laboratory Animal Science, Peking University First Hospital) were used in this study. The mice were inoculated with 1×10^7 HepG2 cells in the right upper limbs, and the tumors were allowed to grow to about a 1 cm diameter for largest diameter which could be measured. The mice were maintained using a standard diet, bedding and environment, with free access to food and drinking water.
40 BALB/c nu/nu mice with HepG2 xenografts were randomly divided into 8 groups (6 experimental groups, 1 blocking group and 1 control group) of 5 mice each. The experimental groups were treated with ^99mTc-RRL directly, and the blocking group was treated with excessive unlabeled RRL (500 µg, dissolved in 50 µL, 0.5 M, pH = 7.4 phosphate buffer) from lateral tail vein 30 minutes before injection of the radiolabeled derivative. The control group was administered with Na^99mTcO4 only.
The radiolabeled compounds were purified and isolated from the Sephadex G25 gel-filtration column, 1,850 kBq of ^99mTc-RRL was injected into each mouse via the lateral tail vein. All injections were successful with no leakage. The animals of 6 experimental groups were sacrificed by cervical dislocation at 15 min, 30 min, 1, 2, 4 and 6 h after injection, respectively. At 6 h, the blocking and control group were also studied.
The mice were dissected and tissues of interest (blood, heart, liver, spleen, lung, kidney, stomach, small intestine, bladder, bone, skeletal muscle and tumor) were weighed, and their radioactivity was measured using a γ-well counter, which was equipped with a NaI(Tl) crystal detector and coupled to a high gain PMT for maximum efficiency of 80%, along with a standard solution of the injection. Radioactivity results were recorded as the percentage injected activity per gram (%ID/g) of tissue corrected for background and decay.

HepG2 xenografts = assay: Planar gamma imaging of tumor xenografts; assay type: in vivo, BALB/c nu/nu mice
Protocol: 12 BALB/c nu/nu mice with HepG2 xenografts were divided into 4 groups of 3 mice each (experimental, blocking, control and micro-PET group). The tumors were about 1 cm diameter for planar gamma or micro-PET imaging.
In experimental group, 7.4 MBq ^99mTc-RRL (100 µl, diluted with phosphate buffer, pH 7.4), which were purified and separated by Sephadex G25 gel-filtration column, were then injected into each mouse via lateral tail vein. In blocking group, 500 µg unlabeled RRL was injected 30 minutes before injection of ^99mTc-RRL. In control group, each mouse was only administered with 7.4 MBq Na^99mTcO4. All injections were successful with no leakage.
A whole-body planar imaging was performed at 1, 2, 4 and 6 h after injection in the Department of Nuclear Medicine, Peking University First Hospital, using SPECT (SPR SPECT; GE Healthcare, Inc.) equipped with a low-energy, high-resolution, parallel-hole collimator. Planar images were acquired 200,000 counts with a zoom factor of 2.0, and were digitally stored in a 256×256 matrix size.

Q: With “G[dA]GGK[dS][dS]CGGRRLGGC-NH2 (disulfide 8-16 (inferred)) [^99mTc-RRL, cyclic (disulfide) RRL peptide radiolabeled with 99mTc by a one-step method]” as the substance, how does the “Radiochemical purity over 6 hours in fresh 37°C serum” value [1] read?
A: more than 93%

Q: What about the “Radiochemical purity over 6 hours at room temperature (RT)” value ([2]; 100 µL sample at room temperature) of the same substance?
A: more than 93%

Q: And the “Radiochemical purity over 6 hours in normal saline (NS) at RT” value ([2]; 100 µL with 900 µL normal saline at room temperature)?
A: more than 93%

Q: What about the “Blood clearance: tracer cleared from blood” value [3] of the same substance?
A: more than 71.3%

Q: And the Ratio of tumor-to-blood [3]?
A: 1.95

Q: What about the Ratio of tumor-to-liver [3] of the same substance?
A: 1.98

Q: What about the Ratio of tumor-to-muscle [3] of the same substance?
A: exceeded 6.5

Q: What about the “Tracer cleared from tumor” value [3] of the same substance?
A: less than 4.39%

Q: What about the “Tumor visualisation in planar gamma imaging, blocking group” value (HepG2 xenografts; 500 µg unlabeled RRL injected 30 minutes before 7.4 MBq tracer, any time after injection) of the same substance?
A: not shown clearly

Q: And the “Tumor visualisation in planar gamma imaging” value (HepG2 xenografts; experimental group, 7.4 MBq i.v., at 2–6 h after administration)?
A: imaged clearly
